Assay results taken from BigSolDB 2.1.

N#Cc1ccccc1-c1ccc(CBr)cc1
solubility (mole fraction)
Details | 278.15 K | 283.15 K | 288.15 K | 293.15 K | 298.15 K | 303.15 K | 308.15 K | 313.15 K
in acetone | 0.0151 | 0.0169 | 0.0214 | 0.0241 | 0.0306 | 0.0352 | 0.0424 | 0.0492
in n-propanol | 0.00052 | 0.00075 | 0.00099 | 0.00126 | 0.00181 | 0.00226 | 0.0027 | 0.00343
